Assay results reported in US20260209215A1, “GLYCINE DERIVATIVES WITH P2X4 RECEPTOR-BLOCKING ACTIVITY AS DIAGNOSTICS AND FOR THE TREATMENT OF PAIN, INFLAMMATION, CANCER, AND OTHER P2X4 RECEPTOR-RELATED DISEASES” (RHEINISCHE-FRIEDRICH-WILHELMS-UNIVERSITÄT BONN, priority 2022, published 2026).

Target: T1, P2X4 receptor (Homo sapiens, UniProt Q99571)
T1 construct: expressed in transfected cells; host or cells: 1321N1 astrocytoma cells, retroviral vector pQCXIN, G418 selection, monoclones
T1 sequence (Q99571 1-388): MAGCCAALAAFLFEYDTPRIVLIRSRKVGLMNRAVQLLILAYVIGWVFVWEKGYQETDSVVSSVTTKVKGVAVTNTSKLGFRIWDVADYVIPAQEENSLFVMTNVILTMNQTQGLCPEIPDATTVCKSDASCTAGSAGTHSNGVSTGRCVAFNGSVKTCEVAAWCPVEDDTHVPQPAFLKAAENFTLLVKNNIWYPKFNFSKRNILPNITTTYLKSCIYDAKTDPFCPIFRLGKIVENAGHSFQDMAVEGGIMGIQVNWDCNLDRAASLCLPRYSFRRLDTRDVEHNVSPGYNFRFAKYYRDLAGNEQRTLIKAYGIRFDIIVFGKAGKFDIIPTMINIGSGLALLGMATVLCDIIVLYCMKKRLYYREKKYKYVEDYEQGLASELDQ
Assay: Measurement of Ca2+ influx in transfected 1321N1 astrocytoma cells (P2X4 inhibitory potency)
Format: cell-based
Details: agonist-mediated Ca2+ influx, FLUO-4, 1321N1 astrocytoma cells; antagonists added 30 min before agonist
Text: The rat, mouse, and human P2X4 DNA, respectively, were cloned into the retroviral vector pQCXIN. 1321N1 Astrocytoma cells were transfected with the DNA using a retroviral system as described previously. In brief, GP+envAM12 packaging cells were first transiently co-transfected with a retroviral vector to generate the retrovirus and with a vesicular stomatitis virus G protein (VSV-G) to pseudotype the virus and to increase their infection efficiency. The viruses containing the rat, mouse or human P2X4 receptor sequence were then used to create a stable astrocytoma cell line. P2X4 receptor-expressing cells were selected with G418 ([…]).
The selection of monoclones for rat and human P2X4 receptors was performed using the limited dilution method by plating the cells at very low cell densities (1 cell clone per well in 96-well plates). Cells were counted, and then several dilutions were made to obtain a concentration of […]. We subsequently added 100 µL of the diluted cell suspension into each well expecting to obtain on average 1 cell per well. After a few days the wells that contained single clones were labeled and transferred into 24 well plates. More than 20 clones were selected for each cell line and characterized in calcium influx assay.
Measurement of Ca^2+ influx in transfected 1321N1 astrocytoma cells
P2X receptor function was determined on the basis of agonist-mediated increases in cytosolic Ca^2+ concentration. The fluorescent Ca^2+chelating dye FLUO-4 was used as an indicator of the relative levels of intracellular Ca^2+ in a 96-well format using a fluorescence imaging plate reader (Novostar, BMG, Germany). Cells were grown to confluence in 96-well black-walled tissue culture plates and loaded with FLUO-4 AM ([…]) in Hank's balanced salt solution (HBSS, containing 10 mM HEPES, pH 7.3, and 1% Pluronic® F127) for 1 h at 23° C. After incubation, the loaded cells were washed with the same buffer to remove extracellular FLUO-4 AM. Compound solutions were prepared in HBSS (containing 20 mM HEPES, pH 7.3) or DMSO depending on their solubility. […] Fluorescence intensity was measured at 520 nm for 30 s at 0.4 s intervals. Buffer or test compounds were injected sequentially into separate wells using the automatic pipetting device. At least three independent experiments were performed in triplicate or duplicate. Antagonists were added 30 min before the addition of agonists. The assays were performed in a final volume of 200 μL. Compounds were tested at 7-8 different concentrations spanning three orders of magnitude of concentrations. Statistical significances were calculated using the unpaired two-tailed t-test.

Compound	IC50
CCc1nsc(-c2ccc(C)c(NCC(=O)N3CCc4c3cccc4S(=O)(=O)NC)c2)n1 [Example 26, 1-((5-(3-ethyl-1,2,4-thiadiazol-5-yl)-2-methylphenyl)glycyl)-N-methylindoline-N-sulfonamide]	0.1 to 19 nM
CCc1nsc(-c2ccc(C)c(NCC(=O)N3CCc4c(N5CC(C)OC(C)C5)cccc43)c2)n1 (stereo not drawn) [Example 27, 1-(4-(2,6-dimethylmorpholino)indolin-1-yl)-2-((5-(3-ethyl-1,2,4-thiadiazol-5-yl)-2-methylphenyl)amino) ethan-1-one]	0.1 to 19 nM
Cc1ccc(-c2ccc(C)c(NCC(=O)N3CCc4c(CO)cccc43)c2)o1 [Example 28, 1-(4-(hydroxymethyl)indolin-1-yl)-2-((2-methyl-5-(5-methylfuran-2-yl)phenyl)amino)ethan-1-one]	0.1 to 19 nM
Cc1nsc(-c2ccc(C)c(NCC(=O)N3CCc4c(OCCC(C)(C)O)cccc43)c2)n1 [Example 30, 1-(4-(3-hydroxy-3-methylbutoxy)indolin-1-yl)-2-((2-methyl-5-(3-methyl-1,2,4-thiadiazol-5-yl)phenyl)amino)ethan-1-one]	0.1 to 19 nM
Cc1nsc(-c2ccc(C)c(NCC(=O)N3CCc4c(C(O)C(F)(F)F)cccc43)c2)n1 (stereo not drawn) [Example 33, 2-((2-methyl-5-(3-methyl-1,2,4-thiadiazol-5-yl)phenyl)amino)-1-(4-(2,2,2-trifluoro-1-hydroxyethyl)indolin-1-yl)ethan-1-one]	20 to 39 nM
COc1cccc2c1CCN2C(=O)CNc1cc(-c2nc(C)ns2)ccc1F [Example 34, 2-((2-fluoro-5-(3-methyl-1,2,4-thiadiazol-5-yl)phenyl)amino)-1-(4-methoxyindolin-1-yl)ethan-1-one]	20 to 39 nM
Cc1ccc(-c2ccc(C)c(NCC(=O)N3CCc4c3cccc4N3C4CCC3CC(O)C4)c2)o1 (stereo not drawn) [Example 36, 1-(4-(3-hydroxy-8-azabicyclo[3.2.1]octan-8-yl)indolin-1-yl)-2-((2-methyl-5-(5-methylfuran-2-yl)phenyl)amino)ethan-1-one]	20 to 39 nM
CC(=O)c1cccc2c1CCN2C(=O)CNc1cc(-c2nc(C)ns2)ccc1C [Example 37, 1-(4-acetylindolin-1-yl)-2-((2-methyl-5-(3-methyl-1,2,4-thiadiazol-5-yl)phenyl)amino)ethan-1-one]	20 to 39 nM
Cc1noc(-c2ccc(F)c(NCC(=O)N3CCc4c(C(O)C(F)(F)F)cccc43)c2)n1 (stereo not drawn) [Example 41, 2-((2-fluoro-5-(3-methyl-1,2,4-oxadiazol-5-yl)phenyl)amino)-1-(4-(2,2,2-trifluoro-1-hydroxyethyl)indolin-1-yl)ethan-1-one]	20 to 39 nM
COc1ccc2c(n1)CCN2C(=O)CNc1cc(-c2nc(C)ns2)ccc1C [Example 42, 1-(5-methoxy-2,3-dihydro-1H-pyrrolo[3,2-b]pyridin-1-yl)-2-((2-methyl-5-(3-methyl-1,2,4-thiadiazol-5-yl)phenyl)-amino)ethan-1-one]	20 to 39 nM
Cc1nsc(-c2ccc(C)c(NCC(=O)N3CCc4c(NS(C)(=O)=O)cccc43)c2)n1 [Example 46, N-(1-((2-methyl-5-(3-methyl-1,2,4-thiadiazol-5-yl)phenyl)glycyl)indolin-4-yl)methanesulfonamide]	20 to 39 nM
Cc1noc(-c2ccc(C)c(NCC(=O)N3CCc4c(OCCC(C)(C)O)cccc43)c2)n1 [Example 47, 1-(4-(3-hydroxy-3-methylbutoxy)indolin-1-yl)-2-((2-methyl-5-(3-methyl-1,2,4-oxadiazol-5-yl)phenyl)amino)ethan-1-one]	20 to 39 nM
Cc1noc(-c2ccc(C)c(NCC(=O)N3CCc4c(OCC(C)(C)O)cccc43)c2)n1 [Example 49, 1-(4-(2-hydroxy-2-methylpropoxy)indolin-1-yl)-2-((2-methyl-5-(3-methyl-1,2,4-oxadiazol-5-yl)phenyl)amino)ethan-1-one]	40 to 69 nM
Cc1ccc(-c2nc(C3CC3)no2)cc1NCC(=O)N1CCc2c(OCC(C)(C)O)cccc21 [Example 50, 2-((5-(3-cyclopropyl-1,2,4-oxadiazol-5-yl)-2-methylphenyl)amino)-1-(4-(2-hydroxy-2-methylpropoxy)-indolin-1-yl)ethan-1-on]	40 to 69 nM
Cc1nsc(-c2ccc(C)c(NCC(=O)N3CCc4c3cccc4S(N)(=O)=O)c2)n1 [Example 51, 1-((2-methyl-5-(3-methyl-1,2,4-thiadiazol-5-yl)phenyl)glycyl)-indoline-4-sulfonamide]	40 to 69 nM

Next, values leading:

IC50	Compound
20 to 39 nM	Cc1nsc(-c2ccc(C)c(NCC(=O)N3CCc4c(C(C)O)cccc43)c2)n1 (stereo not drawn) [Example 29, 1-(4-(1-hydroxyethyl)indolin-1-yl)-2-((2-methyl-5-(3-methyl-1,2,4-thiadiazol-5-yl)phenyl)amino)ethan-1-one]
20 to 39 nM	Cc1nsc(-c2ccc(C)c(NCC(=O)N3CCc4c(OCCOCCO)cccc43)c2)n1 [Example 31, 1-(4-(2-(2-hydroxyethoxy)-ethoxy)indolin-1-yl)-2-((2-methyl-5-(3-methyl-1,2,4-thiadiazol-5-yl)phenyl)-amino)ethan-1-one]
0.1 to 19 nM	Cc1nsc(-c2ccc(C)c(NCC(=O)N3CCc4c(-c5cccnc5)cccc43)c2)n1 [Example 32, 2-((2-methyl-5-(3-methyl-1,2,4-thiadiazol-5-yl)phenyl)amino)-1-(4-(pyridin-3-yl)indolin-1-yl)ethan-1-one]
20 to 39 nM	CCc1nsc(-c2ccc(C)c(NCC(=O)N3CCc4c3cccc4-n3ccnc3)c2)n1 [Example 35, 1-(4-(1H-imidazol-1-yl)indolin-1-yl)-2-((5-(3-ethyl-1,2,4-thiadiazol-5-yl)-2-methyl-phenyl)amino)ethan-1-one]
20 to 39 nM	Cc1ccc(-c2nc(C3CC3)ns2)cc1NCC(=O)N1CCc2c(OCC(C)(C)O)cccc21 [Example 38, 2-((5-(3-cyclopropyl-1,2,4-thiadiazol-5-yl)-2-methylphenyl)amino)-1-(4-(2-hydroxy-2-methylpropoxy)-indolin-1-yl)ethan-1-one]
20 to 39 nM	O=C(CNc1cc(-c2nc(Cl)ns2)ccc1Cl)N1CCc2c(O)cccc21 [Example 39, 2-((2-chloro-5-(3-chloro-1,2,4-thiadiazol-5-yl)phenyl)amino)-1-(4-hydroxyindolin-1-yl) ethan-1-one]
20 to 39 nM	Cc1ccc(-c2nc(C(F)F)ns2)cc1NCC(=O)N1CCc2c1cccc2C(C)(C)O [Example 40, 2-((5-(3-(difluoromethyl)-1,2,4-thiadiazol-5-yl)-2-methylphenyl)amino)-1-(4-(2-hydroxypropan-2-yl)indolin-1-yl) ethan-1-one]
20 to 39 nM	Cc1ccc(-c2ccc(F)c(NCC(=O)N3CCc4c(OCC(C)(C)O)cccc43)c2)o1 [Example 43, 2-((2-fluoro-5-(5-methylfuran-2-yl)phenyl)amino)-1-(4-(2-hydroxy-2-methylpropoxy)-indolin-1-yl)ethan-1-one]
20 to 39 nM	Cc1nsc(-c2ccc(C)c(NCC(=O)N3CCc4c(NCC(C)(C)O)cccc43)c2)n1 [Example 44, 1-(4-((2-hydroxy-2-methylpropyl)amino)indolin-1-yl)-2-((2-methyl-5-(3-methyl-1,2,4-thiadiazol-5-yl)phenyl)-amino)ethan-1-one]
20 to 39 nM	CCc1nsc(-c2ccc(C)c(NCC(=O)N3CCc4c(C(=O)N5CCN(C)CC5)cccc43)c2)n1 [Example 45, 2-((5-(3-ethyl-1,2,4-thiadiazol-5-yl)-2-methylphenyl)amino)-1-(4-(4-methylpiperazine-1-carbonyl)indolin-1-yl) ethan-1-one]
20 to 39 nM	Cc1nsc(-c2ccc(C)c(NCC(=O)N3CCc4c3cccc4-n3ccnc3)c2)n1 [Example 48, 1-(4-(1H-imidazol-1-yl)indolin-1-yl)-2-((2-methyl-5-(3-methyl-1,2,4-thiadiazol-5-yl)phenyl)amino)ethan-1-one]
40 to 69 nM	Cc1nsc(-c2ccc(C)c(NCC(=O)N3CCc4ccccc43)c2)n1 [Example 52, 1-(indolin-1-yl)-2-((2-methyl-5-(3-methyl-1,2,4-thiadiazol-5-yl)phenyl)amino)ethan-1-one]
